Measured values as given in ChEMBL document CHEMBL5154929, “Optimization of the Natural Product Calothrixin A to Discover Novel Dual Topoisomerase I and II Inhibitors with Improved Anticancer Activity” (J Med Chem, 2022).
The source made the active and inactive calls. The calls are words filed in the database; no cut-off is given here.

What was measured:
SH-SY5Y = assay: Cytotoxicity against human SH-SY5Y cells expressing low level of topoisomerase I/II measured after 72 hrs by MTT assay; format: functional, cell-based
A-375 [1] = assay: In vivo induction of apoptosis in human A-375 cells xenografted in BALB/c nude mouse assessed as increase in C-caspase-3 level treated after 7 days of tumor implantation on right flank subcutaneously at 10 to 20 mg/kg, iv administered once per 2 days for 14 days by measuring TUNEL positive cells under a light microscope; format: functional, organism-based; details: dose 10-20 mg/kg, time 14.0 day
[2] = target: T1, DNA topoisomerase 1 (Homo sapiens) (UniProt P11387); assay: Inhibition of DNA topoisomerase I (unknown origin) relaxation activity at 100 uM incubated for 30 mins by chemiDoc system
T1 sequence (whole entry): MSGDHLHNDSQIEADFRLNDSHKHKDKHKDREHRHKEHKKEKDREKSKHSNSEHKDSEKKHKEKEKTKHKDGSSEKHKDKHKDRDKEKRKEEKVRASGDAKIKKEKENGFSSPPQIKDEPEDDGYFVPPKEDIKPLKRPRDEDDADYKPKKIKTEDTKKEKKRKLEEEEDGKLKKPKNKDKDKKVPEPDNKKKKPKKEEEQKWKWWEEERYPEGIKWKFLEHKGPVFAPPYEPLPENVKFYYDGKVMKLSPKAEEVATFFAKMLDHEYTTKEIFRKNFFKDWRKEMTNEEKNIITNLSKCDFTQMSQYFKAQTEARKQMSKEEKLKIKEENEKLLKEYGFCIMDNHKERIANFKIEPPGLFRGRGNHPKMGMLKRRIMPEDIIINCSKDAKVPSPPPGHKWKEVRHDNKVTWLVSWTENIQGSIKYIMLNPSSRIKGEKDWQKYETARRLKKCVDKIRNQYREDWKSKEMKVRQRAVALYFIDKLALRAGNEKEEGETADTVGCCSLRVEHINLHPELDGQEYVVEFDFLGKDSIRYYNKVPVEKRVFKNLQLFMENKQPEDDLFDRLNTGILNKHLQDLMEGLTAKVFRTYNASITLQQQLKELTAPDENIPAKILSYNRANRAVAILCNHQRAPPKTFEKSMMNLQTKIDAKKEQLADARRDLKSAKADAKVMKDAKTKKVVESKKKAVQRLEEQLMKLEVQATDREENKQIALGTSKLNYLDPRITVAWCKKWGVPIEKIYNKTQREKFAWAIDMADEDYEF

[3] = Selectivity index, ratio of IC50 for human HEK293T cells to IC50 for human A-375 cells; format: toxicity; details: HEK293T cells and A-375 cells, read-out: Ratio IC50
[4] = In vivo acute toxicity in Balb/C mouse assessed as mortality at 10 to 50 mg/kg, iv administered once per 2 days for 7 days; format: organism-based; details: 168 h, dose 10-50 mg/kg, time 7 day
A-375 [5] = assay: Induction of apoptosis in human A-375 cells assessed as increase in expression level of C-caspase-9 measured after 24 hrs by Western blotting analysis; format: functional, cell-based; details: dose 40-120 nM, DDE = dose-dependent effect

O=C1c2c[n+]([O-])c3ccccc3c2C(=O)c2c1c1ccccc1n2Cc1cn([C@@H]2C[C@H](O)[C@@H](CO)O2)nn1
IC50 (SH-SY5Y): 150 nM
Activity (A-375 [1]): Active
inhibition [2]: Active
selectivity ratio [3]: 40
Activity [4]: Non-Toxic
Activity (A-375 [5]): Dde
